In a melting point compilation (Tetko et al.; mined from patent text by program, amines drawn as free bases though some values may be those of a salt):

| SMILES | melting point [°C] |
| --- | --- |
| Cc1ccc(-n2nc(C(C)(C)C)cc2NC(=O)Nc2ccc(N(C)c3ccncc3)c3ccccc23)cc1 | 174 to 177 |
| NCCCCn1cnc2ccccc21 | 119 to 123 |
| Clc1ccc2c(c1)c(-c1ccccc1)nc1nncn12 | 295 to 297 |
| CC1(C)Oc2c(ccc(Cl)c2N)C1=O | 91.5 to 93.5 |
| O=c1[nH]c2cc(Cl)ccc2n1C1CCN(CCCC(c2ccc(F)cc2)c2ccc(F)cc2)CC1 | 186 |
| COc1cc(C=C2NC(=O)NC2=O)cc(OC)c1OC | 266 to 268 |
| CCC(CC)c1ccc(Cl)c2nc(Nc3ccc(OC)nc3OC)n(CCCCO)c12 | 116 to 118 |
| O=C(O)Cc1ccccc1OCCCc1cn(-c2ccc(C(F)(F)F)cn2)nc1-c1ccccc1 | 133 to 134 |
| COc1c(C(C)C)cc(S(N)(=O)=O)c(C)c1C(=O)NCC1CCCN1CC1CC1 (centres undefined) | 125 |
| c1ccc(Cc2nc3cnc4ccccc4c3s2)cc1 | 111 to 113 |
| CC(C)(CCCCCCCCCCCCC1(C(=O)O)CC1)C(=O)O | 85.6 to 86.7 |
| O=c1[nH]c2cc(Cl)c(Cl)cc2c(O)c1-c1ccccc1 | 347 to 349 |
| COc1ccc2c(c1)NC1(CCN(C)CC1)c1cccn1-2 | 124 to 125 |
| O=[N+]([O-])c1ccccc1SN1CCN(C2CC2)CC1 | 100 to 102 |
| O=S1(=O)N=C(NC2(CO)CCCC2)Nc2cc(Cl)sc21 | 213 to 214 |
| CC1(C)Cc2cc(OCCO)c3c(c2C(c2ccccc2)=N1)CC(C)(C)O3 | 90 to 92 |
| COC(=O)C1CNCCN1C(=O)c1cc(OC)c(OC)c(OC)c1 (centres undefined) | 134 to 135 |
| Fc1ccc(Nc2ncnc3cnc(N4CCN(c5ccncc5)CC4)nc23)cc1Cl | 248 to 250 |
| CCCc1nn(C)c2c(=O)n(CCNc3ccc(C(C)=O)cc3)c(-c3ccc(OC)c(OC)c3)nc12 | 182 to 184 |

| SMILES | melting point [°C] |
| --- | --- |
| O=C(CCNC(=O)OCc1ccccc1)NC1C(C(=O)O)OC(n2cnc3c(NC(=O)c4ccccc4)ncnc32)C1O (centres undefined) | 136 to 141 |
| CC(CCN1CCN(c2ccc(F)cc2)CC1)N1c2cccc3cccc(c23)S1(=O)=O (centres undefined) | 116 |
| CC(C)CCCC(C)C1CCC2C3CC=C4CC(OCCCCCCS)CCC4(C)C3CCC12C (centres undefined) | 89 to 90 |
| CN(C)CCNC1=CC(=O)c2oc(-c3cc(F)c(F)c(F)c3)nc2C1=O | 200 to 201 |
| Cc1cc(-c2cc(C(F)F)n3ncc(C(=O)O)c3n2)ccc1C(F)(F)F | 217 |
| CC(C)(C)NC(=O)NCc1ccc2c(c1)C(=O)N(C1CCC(=O)NC1=O)C2=O (centres undefined) | 202 to 204 |
| CC(C)(C)OC(=O)CN(C(=O)CNC(=O)Nc1ccccc1)c1ccccc1C(=O)c1ccccc1 | 166 to 167 |
| CCOP(=O)(/C=C/c1cn(-c2ccccc2)nc1OCc1ccc(OCc2nc(-c3ccc(C)c(C(=O)OC)c3)oc2C)c(OC)c1)OCC | 121 to 122 |
| CCOC(=O)N1CCN(Cc2nc3cccnc3n2CCO)CC1 | 117 |
| O=C(CCl)Nc1ccc(Cl)cc1C(=O)c1ccccc1 | 119 to 120 |
| COc1cc(Nc2nccc(-c3cn(S(=O)(=O)c4ccccc4)c4ccccc34)n2)cc(OC)c1OC | 202 |
| CCCS(=O)c1sc(C(N)=O)c2c1-c1c(cnn1C)CC2 (centres undefined) | 194 to 195 |
| CC(=O)OS(=O)(=O)OC(C)=O | 228 |
| C(=Nc1onc2c1CCC2)c1ccccc1 | 166 |
| COc1cc(Nc2nccc(-c3sc(-c4cccnc4)nc3C)n2)cc(OC)c1OC | 210 to 211 |
| COc1ccc(NC(=O)/C=C/c2c(F)c(F)c(F)c(F)c2F)cc1[N+](=O)[O-] | 265 to 266 |
| CN(C)c1nccc(N2CCN(C=O)CC2)n1 | 116 |
| CC(Oc1ccc(F)cc1)c1ccnc2ncnn12 (centres undefined) | 100 to 102 |
| CCCc1cc(C(C)=O)c(O)cc1OCCCCC(=O)O | 106 |

| SMILES | melting point [°C] |
| --- | --- |
| O=C(c1ccccc1)N1CCNc2ncc(-c3cccnc3)cc21 | 219 to 220 |
| O=c1nc(-c2cccc(CN3CCCCC3)n2)sc2ccccc12 | 162 to 163 |
| CSc1ncc(Br)c(N(C)NC(=O)c2c(Cl)cccc2Cl)n1 | 254 to 256 |
| CN1C(=O)CCC2CC(C3=NNC(=O)CC3CO)=CC=C21 (centres undefined) | 201 to 204 |
| COc1ccc(C2=CC(=O)CC2)cc1OC1CCCC1 | 136 to 137 |
| Cc1ccc(Cn2nc(C(=O)NC3CCCCC3C)cc2-c2ccc(Cl)c(Cl)c2)cc1Cl (centres undefined) | 165 |
| Cc1cc(C)cc(CCCn2c(=O)c3c(Cl)cc(Cl)cc3n(Cc3ccccc3)c2=O)c1 | 144 to 147 |
| CCCCCC(C)N(CCCC)c1ccc(C2=C(C#N)C(=C(C#N)C#N)NC2=O)cc1 (centres undefined) | 180 |
| CNC(=O)CC1CN=C(c2cc3cc(Oc4ccc(S(C)(=O)=O)nc4)cc(OC)c3[nH]2)S1 (centres undefined) | 201 to 202 |
| O=[N+]([O-])c1cc(Cl)c(OCCCO)c([N+](=O)[O-])c1OCCCO | 90 |
| Cc1noc(C)c1S(=O)(=O)Nc1cc(-c2ncc(C(F)(F)F)cc2Cl)ccc1Cl | 161 to 162 |
| COc1cccc(C(NC(=O)Cc2c(Cl)cncc2Cl)C2CCCC2)c1 (centres undefined) | 105 to 106 |
| NC(=O)c1nc(-c2ccc3nc[nH]c3c2)nc2c1[nH]c(=O)n2-c1ccccc1F | 278 |
| CCCC1CCCNC1=O (centres undefined) | 75 to 76 |
| Nc1cccc(Nc2nccc(Sc3cccc(Br)c3)n2)c1 | 109 to 110 |
| COC(=O)CCCCNC(=O)c1sc2ccc(OC)cc2c1OC(C)C | 82 to 84 |
| CN1C(=O)CN(C(=O)NC2C3CC4CC(C3)CC2C4)C(c2ccccc2)c2ccccc21 (racemic) | 243 to 244 |
| CC(CCCC(C)(C)O)C1CCC2C3=CC=C4CC(O)C5OC5C4(C)C3CCC21C (centres undefined) | 173 to 175 |
| CCCCNC(=O)[C@H](C)C[C@H](O)[C@H](CC1CCCCC1)NC(=O)[C@H](Cc1cscn1)NC(=O)[C@@H](CC(=O)N(C)Cc1ccccc1)Cc1ccc(OC)cc1 | 112 to 114 |

The next lines start with the values.

| melting point [°C] | SMILES |
| --- | --- |
| > 255 | Cc1nc2c(N)nc3cccnc3c2n1CC1(O)CCN(S(C)(=O)=O)CC1 |
| 62 to 63.5 | CCOCCCCC(=S)c1ccc(C)cc1 |
| 45.1 to 46.5 | CCc1ccc(S(=O)(=O)O)cc1 |
| 143 | CC(CCc1ccccc1)Nc1nc(Cl)nc(NS(C)(=O)=O)n1 (centres undefined) |
| 232 to 234 | O=C1CN(Cc2ccc(CCn3cnc4cc(-c5ccc(Cl)cc5)sc4c3=O)cc2)CCN1 |
| 160 to 162 | O=c1cc(-c2cccs2)oc2cccc(OCCO)c12 |
| 195 to 197 | NC(C=Cc1cccc(Cl)c1)=NO |
| 72 | C#CCOc1cc(Oc2ccc(OC)cc2)ncn1 |
| 106 to 110 | CCOC(=O)C(c1c[nH]c2cccc(C(=O)OC)c12)C(C)[N+](=O)[O-] (centres undefined) |
| 178 to 180 | COc1ccc2c(c1)c1c(n2C)CC(C(N)=O)C1 (centres undefined) |
| 97 | CCc1ccc(CCc2ccc(-c3ccc(OC(F)(F)F)cc3)cc2)cc1 |
| 85 | COc1ccccc1C(CSc1ccccc1N)C(=O)O (centres undefined) |
| 166 to 167 | Cc1nc(N)c2nc(C)n(CCCCCS(=O)(=O)c3ccccc3)c2c1C |
| 172 to 174 | O=C1NC(Cc2ccccc2)C(C(=O)O)O1 (centres undefined) |
| 249 to 251 | Nc1ccc(S(=O)(=O)c2cc(-c3cccc([N+](=O)[O-])c3)nc(N3CCCC3)c2)cc1 |
| 250 to 254 | CCCc1cc2c(=O)n3cc(C(=O)O)ccc3nc2s1 |
| 107 | COCc1cnc2c(N)cccc2c1Cl |
| 250 to 251 | CC(=O)c1c(C)c2c(C)[nH]c(-c3ccccc3)c2[nH]c1=O |
| 134 to 135 | CCNC(=O)c1c(C(F)(F)F)cccc1[Si](C)(C)C |
| 118 to 120 | Cc1cccc(-c2ccc(S(=O)(=O)N3c4ccccc4CC3C(=O)NCc3ccc(CC(=O)O)cc3)cc2)c1 (centres undefined) |
| 169 to 170 | COc1cc(Oc2ccc(S(C)(=O)=O)cc2)cc2cc(C3=NCC(CC(N)=O)S3)[nH]c12 (centres undefined) |

| melting point [°C] | SMILES |
| --- | --- |
| 74 to 76 | CCC(=S)c1ccc(NS(C)(=O)=O)c(Oc2ccc(F)cc2F)c1 |
| 220 to 221 | CCC(C)CNC(=O)c1ccc2cccc(Cc3ccc(C(=O)O)cc3OC)c2c1 (centres undefined) |
| 125 to 127 | CC[C@H](C)[C@H](NS(=O)(=O)c1cccc2ccccc12)C(=O)N[C@H]1CCOC1OC (some centres undefined) |
| 78 to 80 | CCCCNC(=O)CCC(=O)c1ccccc1 |
| 62 | CC(C)(O)C#Cc1ccc(Br)cc1 |
| 179 to 182 | COc1ccc(S(=O)(=O)n2ccc3ccnc(-c4ccc(O)cc4)c32)cc1 |
| 240 to 244 | NC(=O)[C@@H]1[C@H](Nc2ccnc3[nH]c(-c4ccc(CN5CCOCC5)cc4)nc23)[C@H]2C=C[C@@H]1C2 |
| 143 to 144 | O=C(NC1=NN(c2cccc(Cl)c2)CC1)C(F)(F)F |
| 197 | CCc1c[nH]c(-c2ccc3c(c2)N(C(C)CN2CCCC2)c2ccccc2S3)n1 (racemic) |
| 204 to 206 | CC(C)=C(c1ccc(C(=O)O)cc1)c1ccc2c(c1)C(C)(C)CCC2(C)C |
| 116 to 117 | Cc1ccnc2c1C(=O)CC(c1cc(Cl)ccc1Cl)C2 (centres undefined) |
| 196 to 197 | COc1ccc(Cn2ncc3c4c(cnc32)C(=O)NC4=O)cc1 |
| 95 to 97 | Brc1ccccc1-c1c(Br)cccc1Br |
| 156 to 161 | CC(N=Cc1ccc(O)cc1)c1ccc(Br)cc1 (single isomer, unassigned; (-)) |
| 52 to 54 | COc1cccc(C=CC(=O)C=Cc2cccc(OC)c2)c1 |
| 228 to 231 | CC(=O)Nc1c(C(=O)c2cccs2)[nH]c2cc(Cl)ccc12 |
| 110 to 115 | CC1(C)C=C(N2Cc3ccccc3C2=O)c2cc(S(=O)(=O)C(F)(F)F)ccc2O1 |
| 164 to 165 | CCCCc1ncc(/C=C2\C(=O)NC(=O)N2Cc2cccs2)n1Cc1ccc(C(=O)OC)cc1 |
| 272 to 276 | CC1(C)Oc2ccc(S(=O)(=O)Nc3ccccc3)cc2C(N2CCCCC2=O)C1O (centres undefined) |
| 127 | COC(=O)c1cc(C(=O)c2cccc(Cl)c2)n(C)c1 |
| 111 to 112 | COc1ccc(NC(=O)NCCCOc2cccc(CN3CCCCC3)c2)cc1 |
